target: T1, human ML1A (Homo sapiens, UniProt P48039); assay: Measurement of melatonergic binding: displacement of 2-[125I]-iodomelatonin from membranes of COS-1 cells transfected with human ML1A cDNA; conditions: Binding affinity (IC50) at the human melatonin receptor, Table 5: displacement of 2-[125I]-Iodomelatonin; Formula I compounds with R1 and R = H, G = methylene
T1 construct: expressed in transfected cells; host or cells: COS-1 cells, transient transfection (DEAE-dextran) with pcDNAI; membrane homogenates
T1 sequence (P48039 whole entry): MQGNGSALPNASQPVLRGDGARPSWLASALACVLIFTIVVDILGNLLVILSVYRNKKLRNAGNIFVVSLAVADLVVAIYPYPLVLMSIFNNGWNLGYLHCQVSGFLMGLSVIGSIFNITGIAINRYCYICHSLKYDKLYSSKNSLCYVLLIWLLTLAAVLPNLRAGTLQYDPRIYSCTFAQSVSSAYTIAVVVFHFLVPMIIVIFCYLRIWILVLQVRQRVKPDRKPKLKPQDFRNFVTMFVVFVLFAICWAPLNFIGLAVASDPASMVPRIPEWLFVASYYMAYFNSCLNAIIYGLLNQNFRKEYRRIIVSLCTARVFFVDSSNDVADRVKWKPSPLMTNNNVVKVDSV
Method: Example 145 (Measurement of Melatonergic Binding)
The melatonergic binding of the compounds of Formula I was determined by a modification of the method of Reppert, S. M. et al. (Neuron, Volume 13, pages 1177-1185, 1994). […] The reagents, membranes, and other parameters used in the assay are described below: Reagents: • (a) 50 mM Tris buffer containing 12.5 mM MgCl2, and 2 mM EDTA (pH 7.4 at 37 °C). • (b) Wash buffer: 20 mM Tris base containing 2 mM MgCl2 (pH 7.4 at room temperature). • (c) 6-Chloromelatonin (10^-5 M final concentration). • (d) 2-[^125I]-Iodomelatonin (100 pM final concentration). (Source: NEN) Membrane preparation: The cDNA (human ML1A) in pcDNAI was introduced into COS-1 cells by the DEAE-dextran method. Three days later, after media removal, the plates were washed with buffered saline; the cells removed using Hank's balanced salt solution and pelleted. The supernant was discarded and the pellets frozen. For membrane homogenates, the pellets were thawed and resuspended in TME buffer, Tris base, MgCl2, EDTA (pH 7.4 at 37 °C), and supplemented with aprotinin, leupeptin, and phenylmethylsulfonyl fluoride. The cells were homogenized and centrifuged; the resulting pellet resuspended in TME and frozen. At assay, the small aliquot was thawed on ice and resuspended in TME buffer. Incubation: 37 °C for 1 hour. Reaction is terminated by filtration.

IC50 [nM] | Molecule
40 to 250 | CCCC(=O)NC[C@@H]1C[C@H]1c1cccc(C(F)(F)C(F)(F)F)c1 (single isomer, unassigned) [Example 89]
40 to 250 | CCCC(=O)NC[C@@H]1C[C@H]1c1cccc(O)c1 (single isomer, unassigned) [Example 79]
40 to 250 | CCCC(=O)NC[C@@H]1C[C@H]1c1cccc(OC(C)C)c1 (racemic) [Example 8, (trans)-N-[[2-[3-(Methylethoxy)phenyl]cyclopropyl]methyl] butanamide]
5 to 40 | CCCC(=O)NC[C@@H]1C[C@H]1c1ccc(I)c(OC(F)(F)F)c1 (single isomer, unassigned) [Example 69]
40 to 250 | CCCC(=O)NC[C@@H]1C[C@H]1c1ccc(I)c(F)c1 (single isomer, unassigned) [Example 71, (-)-(trans)-N-[[2-(3-Fluoro-4-iodophenyl)cycloprop-1-yl]methyl] butanamide]
5 to 40 | CCCC(=O)NC[C@@H]1C[C@H]1c1cc(F)ccc1Br (single isomer, unassigned) [Example 66]
40 to 250 | CCCC(=O)NC[C@@H]1C[C@H]1c1cc(F)ccc1I (single isomer, unassigned) [Example 70]
40 to 250 | CCCC(=O)NC[C@@H]1C[C@H]1c1cccc(F)c1 (racemic) [Example 44]
5 to 40 | CCCC(=O)NC[C@@H]1C[C@H]1c1cccc(OC(F)(F)F)c1 (single isomer, unassigned) [Example 64]

same assay, conditions: Binding affinity (IC50) at the human melatonin receptor, Table 6: displacement of 2-[125I]-Iodomelatonin; Formula I compounds with X = OCH3, Y and Z = H, R1 = H

IC50 [nM] | Molecule
5 to 40 | CCCC(=O)NC(C)[C@@H]1C[C@H]1c1cccc(OC)c1 (single isomer, unassigned) [Example 136]
< 5 | CCCC(=O)NC[C@H]1[C@H](c2cccc(OC)c2)C1(F)F (racemic) [Example 12, (±)-(trans)-[2,2-Difluoro-3-(3-methoxyphenyl)-cyclopropylmethyl] butanamide]
250 to 600 | CCCC(=O)NC[C@H]1[C@H](c2cccc(OC)c2)C1(C)C (racemic) [Example 17, (trans)-N-[[3-(3-methoxyphenyl)-2,2-dimethyl-1-cyclopropyl]methyl]butanamide]
40 to 250 | CCCC(=O)NC(C)[C@@H]1C[C@H]1c1cccc(OC)c1 (single isomer, unassigned; (-)) [Example 14, (-)-(trans)-N-[1-[2-(3-Methoxyphenyl)cyclopropyl]ethyl] butanamide]

same assay, conditions: Table 4 (continued): displacement of 2-[125I]-Iodomelatonin; Formula I compounds with X = OCH3, R = H, G = methylene

Molecule | IC50 [nM]
CNC(=O)NC[C@@H]1C[C@H]1c1cccc(OC)c1 [Example 39, (-)-(trans)-N-[[2-(3-Methoxyphenyl)cycloprop-1-yl]methyl]-N'-methyl urea] | < 5
COc1cccc([C@@H]2C[C@H]2CNC(=O)C2CCCC2)c1 (single isomer, unassigned) [Example 37] | 250 to 600
CCCC(=O)NC[C@@H]1C[C@H]1c1cc(OC)ccc1-c1ccc(C(F)(F)F)cc1 [Example 34, (-)-(trans)-N-[[2-[4-Methoxy-4'-(trifluoromethyl) [1,1'-biphenyl]-2yl]cycloprop-1-yl]methyl] butanamide] | 5 to 40
COc1cccc([C@@H]2C[C@H]2CNC(=O)CCCCl)c1 (single isomer, unassigned) [Example 35] | 5 to 40
CCCC(=O)NC[C@@H]1C[C@H]1c1cc(OC)ccc1I [Example 32, (-)-(trans)-N-[[2-(2-Iodo-5-methoxyphenyl)cyclopropyl]methyl] butanamide] | < 5
COc1cccc([C@@H]2C[C@H]2CNC(=O)C2CC2)c1 [Example 36, (-)-(trans)-N-[[2-(3-Methoxyphenyl)cycloprop-1-yl]methyl]cyclopropane carboxamide] | < 5
CCCC(=O)NC[C@@H]1C[C@H]1c1ccc(I)c(OC)c1 [Example 33, (-)-(trans)-N-[[2-(4-Iodo-3-methoxyphenyl)cycloprop-1-yl]methyl] butanamide] | 5 to 40
CCCC(=O)NC[C@@H]1C[C@H]1c1ccc(Cl)c(OC)c1 (racemic) [Example 27, (trans)-N-[[2-(4-Chloro-3-methoxyphenyl)cyclopropyl]methyl] butanamide] | < 5

The remaining lines, values ahead:

IC50 [nM] | Molecule
< 5 | COc1cccc([C@@H]2C[C@H]2CNC(C)=O)c1 [Example 41, (-)-(trans)-N-[[2-(3-Methoxyphenyl)cycloprop-1-yl]methyl] acetamide]
< 5 | COc1cccc([C@@H]2C[C@H]2CNC(=O)CC(F)(F)F)c1 (single isomer, unassigned) [Example 42, (-)-(trans)-3,3,3-Trifluor-N-[[2-(3-methoxyphenyl)cycloprop-1-yl]methyl] propanamide]

same assay, conditions: displacement of 2-[125I]-Iodomelatonin (100 pM); COS-1 membranes, human ML1A; 37 °C for 1 hour

Molecule | IC50 [nM]
COc1cccc([C@@H]2C[C@H]2CNC(=O)C(C)C)c1 [Example 22, (-)-(trans)-N-[[2-(3-Methoxyphenyl)cyclopropyl]methyl]-2-methylpropanamide] | 5 to 40
CCCC(=O)NC[C@@H]1C[C@H]1c1cccc(OC)c1 [Example 3b, (-)-(trans)-N-[[2-(3-Methoxyphenyl)cyclopropyl]methyl] butanamide] | < 5
CCCC(=O)NC[C@@H]1C[C@H]1c1cc(OC)ccc1NC(=O)CCC (relative stereo) [Example 13, (trans)-N-[[2-(2-Butyrylamino-5-methoxyphenyl)cyclopropyl]methyl] butanamide] | 250 to 600
CCCC(=O)NC[C@@H]1C[C@H]1c1cc(OC)ccc1CCc1ccccc1 (single isomer, unassigned) [Example 9b] | 5 to 40
CCCC(=O)NC[C@@H]1C[C@H]1c1cc(OC)c(Br)cc1Br (relative stereo) [Example 5, (trans)-N-[[2-(2,4-Dibromo-5-methoxyphenyl)cyclopropyl]methyl] butanamide] | < 5
CCCC(=O)NC[C@@H]1C[C@H]1c1cc(OC)ccc1C#N [Example 10, (-)-(trans)-N-[[2-(2-Cyano-5-methoxyphenyl]cyclopropyl]methyl] butanamide] | 5 to 40
CCCC(=O)NC[C@@H]1C[C@H]1c1cc(OC)ccc1-c1ccccc1 [Example 11, (-)-(trans)-N-[[2-(2-Phenyl-5-methoxyphenyl]cyclopropyl]methyl] butanamide] | 5 to 40
CCCC(=O)NC[C@@H]1C[C@H]1c1cc(OC)ccc1C#Cc1ccccc1 (single isomer, unassigned) [Example 9a] | < 5
CCCC(=O)NC[C@@H]1C[C@H]1c1cccc(OC)c1 (single isomer, unassigned) [Example 3a, (+)-(trans)-N-[[2-(3-Methoxyphenyl)cyclopropyl]methyl]butanamide] | 5 to 40

Next, values leading:

IC50 [nM] | Molecule
< 5 | CCCC(=O)NC[C@@H]1C[C@H]1c1cccc(OCC2CC2c2cccc(OC)c2)c1 (mixture of isomers) [Example 132, (trans)-N-[[2-[3-[[2-(3-Methoxyphenyl)cycloprop-1-yl]methoxy]phenyl]cycloprop-1-yl]methyl] butanamide]
5 to 40 | CCCC(=O)NC[C@@H]1C[C@H]1c1cccc(OCC2C(c3cccc(OC)c3)C2(C)C)c1 (some centres unmarked) [Example 131]

same assay, conditions: read-out: Binding affinity (IC50) at the human melatonin receptor; Table 5: displacement of 2-[125I]-Iodomelatonin; Formula I compounds with R1 and R = H, G = methylene

IC50 [nM] | Molecule
< 5 | (trans)-N-[2-[(3-Trideuteromethoxyphenyl)cycloprop-1-yl]methyl] butanamide [Example 111]

— patent publication EP0747346B1, “N-acyl-2 aryl cyclopropylmethylamine derivatives as melatonergics” (BRISTOL-MYERS SQUIBB COMPANY, priority 1995, dated 1996)
